Drawing on patent publication US20140135270A1, “MACROCYCLIC COMPOUNDS FOR INHIBITION OF INHIBITORS OF APOPTOSIS” (Ensemble Therapeutics Corp., priority 2012, published 2014), this text covers IC50, ring closure, yield after HPLC and ring closure, isolated yield for twelve compounds.

pIC50: −log10 of the molar value. Read-outs that look alike come from different tables or passages of the source.

Data set [1] concerns the target T1, His-BIR2 (124-240/C202A/C213G) (Homo sapiens, UniProt P98170, C202A/C213G).
T1 construct: additions of His-BIR2 (124-240/C202A/C213G), Biotinylated SMAC peptide
Nature of the data set: XIAP-BIR2/SMAC Peptide AlphaScreen Assay. Format: binding. Conditions: biotinylated SMAC peptide, read-out: BIR2 ALPHA IC50. The method, then:
C. XIAP-BIR2/SMAC Peptide AlphaScreen Assay
Assays were performed in white, flat-bottom, 384-well ProxiPlates (Perkin Elmer). […]. The reaction was incubated at room temperature for 60 minutes. After 60 minutes, 2.5 μL of Alphascreen detection reagent (Perkin Elmer) was added to the reaction mixture and incubated at room temperature in the dark for 120 minutes. The Alphascreen signal generated by the reaction was detected on the Envision Plate Reader. Inhibition data were calculated from an Alphascreen signal generated by the no protein control reactions for 100% inhibition and vehicle-only reactions for 0% inhibition. […]
Biotinylated SMAC peptide, 4 μg/mL Alphascreen detection reagents, and 0.5% DMSO. Dose response curves were generated to determine the concentration required for inhibiting 50% of the activity (IC50). Compounds were dissolved at 10 mM in dimethylsulfoxide (DMSO) and evaluated at eleven concentrations. IC50 values were derived by non-linear regression analysis.

Data set [2] has as its target T2, N-His-Tb-BIR3(241-356, XIAP) (Homo sapiens, UniProt P98170).
T2 construct: additions of N-His-Tb-BIR3(241-356, XIAP), fluoresceinated modified SMAC peptide; Tb (meaning not explained; sits between His tag and BIR3) (N)
Nature of the data set: XIAP-BIR3 SMAC Peptide Fluorescence Polarization Assay (FPA). Type of data set: binding. The method, then: A. XIAP-BIR3 SMAC Peptide Fluorescence Polarization Assay (FPA) Assays were performed in black, flat-bottom, 384-well plates. The final assay volume was 50 μL prepared from additions of N-His-Tb-BIR3(241-356, XIAP), fluoresceinated modified SMAC peptide, and test compounds in assay buffer consisting of 20 mM Sodium Phosphate, 1 mM EDTA, 50 mM NaCl, and 0.05% Pluronic F68. The reaction was incubated at room temperature for 60 minutes and fluorescence polarization of the reaction was detected on the LJL Plate Reader. Inhibition data were calculated from mP values generated by the no protein control reactions for 100% inhibition and vehicle-only reactions for 0% inhibition. The final concentration of reagents in the assay was 130 nM N-His-Tb-BIR3(241-356, XIAP), 1.4 nM fluoresceinated modified SMAC peptide, and 1% DMSO. Dose response curves were generated to determine the concentration required for inhibiting 50% of polarization activity (IC50). Compounds were dissolved at 10 mM in dimethylsulfoxide (DMSO) and evaluated at eleven concentrations. IC50 values were derived by non-linear regression analysis.

The target in a further data set is T3, His-BIR3 (241-356, XIAP) (Homo sapiens, UniProt P98170).
T3 construct: additions of His-BIR3 (241-356, XIAP), fluorescein labeled SMAC peptide
T3 sequence (P98170 241-356): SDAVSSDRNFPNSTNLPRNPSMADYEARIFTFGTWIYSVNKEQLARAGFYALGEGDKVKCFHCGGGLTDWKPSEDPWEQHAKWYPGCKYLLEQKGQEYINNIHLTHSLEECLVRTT
Nature of the data set: XIAP-BIR3/SMAC Homogeneous Time Resolved Fluorescence (HTRF) Assay. Format: binding. The conditions noted are these: fluorescein labeled SMAC peptide.

Data set [3] has as its target T4, His-BIR2-3 (125-356, C202A/C213G, XIAP) (Homo sapiens, UniProt P98170, C202A/C213G).
T4 construct: additions of His-BIR2-3 (125-356, C202A/C213G, XIAP), fluorescein labeled dimeric SMAC peptide
Nature of the data set: XIAP-BIR2-3 Dimeric SMAC Peptide Homogeneous Time Resolved Fluorescence (HTRF) Assay. Format: binding. Conditions: fluorescein labeled dimeric SMAC peptide.

The conditions of data set [4]: the molecule shown is the open-chain precursor, rcm bond, 38-membered ring, DCE, 70.0 °C.
The conditions of data set [5]: the molecule shown is the open-chain precursor, rcm bond.

T2 sequence (P98170 241-356): as above
T1 sequence (P98170 124-240 C202A/C213G): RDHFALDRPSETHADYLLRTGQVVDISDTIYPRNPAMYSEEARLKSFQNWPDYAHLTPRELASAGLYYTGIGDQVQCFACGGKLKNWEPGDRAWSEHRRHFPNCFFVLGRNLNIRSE
T4 sequence (P98170 125-356 C202A/C213G): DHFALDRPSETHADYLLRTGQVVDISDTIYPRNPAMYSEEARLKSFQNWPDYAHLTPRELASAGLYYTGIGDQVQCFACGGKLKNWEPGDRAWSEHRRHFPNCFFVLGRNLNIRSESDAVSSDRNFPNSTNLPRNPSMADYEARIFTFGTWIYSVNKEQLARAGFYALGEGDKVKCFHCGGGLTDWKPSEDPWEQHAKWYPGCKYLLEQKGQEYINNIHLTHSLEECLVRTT

Take `CNC(C)C(=O)NC(C(=O)N1CC2CC1C(=O)NC(Cc1ccc3ccccc3c1)C(=O)NC(C(=O)O)Cc1ccc(cc1)OCC=CCOC1CC(C(=O)NC(Cc3ccc4ccccc4c3)C(=O)NC(C(=O)O)CCC(=O)N2)N(C(=O)C(NC(=O)C(C)NC)C(C)(C)C)C1)C(C)(C)C` (centres unmarked) [Example 33]: the pIC50 in data set [1] was 7.67; in data set [2] (read-out: BIR3 FPA IC50, fluorescence polarization, fluoresceinated modified SMAC peptide), 7.50; against His-BIR3 (241-356, XIAP), 7.07; in data set [3], 8.02.

`CN[C@@H](C)C(=O)N[C@H](C(=O)N1C[C@@H]2C[C@H]1C(=O)N[C@@H](Cc1ccc3ccccc3c1)C(=O)N[C@H](C(=O)O)COC/C=C/CO[C@H]1C[C@@H](C(=O)N[C@@H](Cc3ccc4ccccc4c3)C(=O)N[C@H](C(=O)O)Cc3ccc(cc3)C(=O)N2)N(C(=O)[C@@H](NC(=O)[C@H](C)NC)C(C)(C)C)C1)C(C)(C)C` [Example 39]: the pIC50 in data set [1] was 7.39; in data set [2] it was 7.50.

For `CN[C@@H](C)C(=O)N[C@H](C(=O)N1C[C@@H]2C[C@H]1C(=O)N[C@@H](Cc1ccc3ccccc3c1)C(=O)N[C@H](C(=O)O)C/C=C/CO[C@H]1C[C@@H](C(=O)N[C@@H](Cc3ccc4ccccc4c3)C(=O)N[C@H](C(=O)O)Cc3ccc(cc3)C(=O)N2)N(C(=O)[C@@H](NC(=O)[C@H](C)NC)C(C)(C)C)C1)C(C)(C)C` [Example 40], the pIC50 in data set [1] was 7.35; in data set [2], 7.58.

Regarding `CN[C@@H](C)C(=O)N[C@H](C(=O)N1C[C@@H]2C[C@H]1C(=O)N[C@@H](Cc1ccc3ccccc3c1)C(=O)N[C@H](C(=O)O)Cc1ccc(cc1)OC/C=C/CO[C@H]1C[C@@H](C(=O)N[C@@H](Cc3ccc4ccccc4c3)C(=O)N[C@H](C(=O)O)CC(=O)N2)N(C(=O)[C@@H](NC(=O)[C@H](C)NC)C(C)(C)C)C1)C(C)(C)C` [Example 41], the figures for the pIC50 in data set [1] and in data set [2] were 7.34 and 7.33, respectively.

For the compound `CN[C@@H](C)C(=O)N[C@H](C(=O)N1C[C@@H]2C[C@H]1C(=O)N[C@@H](Cc1ccc3ccccc3c1)C(=O)N[C@H](C(=O)O)COC/C=C/CO[C@H]1C[C@@H](C(=O)N[C@@H](Cc3ccc4ccccc4c3)C(=O)N[C@H](C(=O)O)CC(=O)N2)N(C(=O)[C@@H](NC(=O)[C@H](C)NC)C(C)(C)C)C1)C(C)(C)C` [Example 42], the results for the pIC50 in data set [1] and in data set [2] were 7.13 and 7.36, respectively.

For `CN[C@@H](C)C(=O)N[C@H](C(=O)N1C[C@@H]2C[C@H]1C(=O)N[C@@H](Cc1ccc3ccccc3c1)C(=O)N[C@H](C(=O)O)C/C=C/CO[C@H]1C[C@@H](C(=O)N[C@@H](Cc3ccc4ccccc4c3)C(=O)N[C@H](C(=O)O)CC(=O)N2)N(C(=O)[C@@H](NC(=O)[C@H](C)NC)C(C)(C)C)C1)C(C)(C)C` [Example 43], the pIC50 in data set [1] is 6.83; in data set [2] it was 7.13.

“(S)-2-((S)-2-((2S,4S)-4-(4-((4-((S)-2-((S)-2-((2S,4S)-4-Allyl-1-((S)-2-4S)-2-((tert-butoxycarbonyl)(methyl)amino)propanamido)-3,3-dimethylbutanoyl)pyrrolidine-2-carboxamido)-3-(naphthalen-2-yl)propanamido)-3-(methylsulfonamido)-3-oxopropyl)phenoxy)methyl)-1H-1,2,3-triazol-1-yl)-1-((S)-2-((S)-2-((tert-butoxycarbonyl)(methyl)amino)propanamido)-3,3-dimethylbutanoyl)pyrrolidine-2-carboxamido)-3-(naphthalen-2-yl)propanamido)-3-(4-(allyloxy)phenyl)propanoic acid” came in with a ring closure, yield after HPLC in data set [4] (Grubbs II (2 portions), 2.9 mM) of 49%.

As for “(S)-Methyl 2-((S)-2-((2S,4S)-4-allyl-1-((S)-2-((S)-2-((tert-butoxycarbonyl)(methyl)amino)propanamido)-3,3-dimethylbutanoyl)pyrrolidine-2-carboxamido)-3-(naphthalen-2-yl)propanamido)-3-(4-(((E)-4-((3S,5S)-5-(((S)-1-(((S)-3-(4-(allyloxy)phenyl)-1-(cyclopropanesulfonamido)-1-oxopropan-2-yl)amino)-3-(naphthalen-2-yl)-1-oxopropan-2-yl)carbamoyl)-1-((S)-2-((S)-2-((tert-butoxycarbonyl)(methyl)amino)propanamido)-3,3-dimethylbutanoyl)pyrrolidin-3-yl)but-2-en-1-yl)oxy)phenyl)propanoate”, in data set [5] (38-membered ring, Grubbs I (2 portions), DCE, 1.1 mM, 55.0 °C), the ring closure, isolated yield was found to be 64%.

Turning to “(S)-tert-Butyl 2-((S)-2-((2S,4S)-4-(4-((4-((S)-2-((S)-2-((2S,4S)-4-allyl-1-((S)-2-((S)-2-((tert-butoxycarbonyl)(methyl)amino)propanamido)-3,3-dimethylbutanoyl)pyrrolidine-2-carboxamido)-3-(naphthalen-2-yl)propanamido)-3-(cyclopropanesulfonamido)-3-oxopropyl)phenoxy)methyl)-1H-1,2,3-triazol-1-yl)-1-((S)-2-((S)-2-((tert-butoxycarbonyl)(methyl)amino)propanamido)-3,3-dimethylbutanoyl)pyrrolidine-2-carboxamido)-3-(naphthalen-2-yl)propanamido)-3-(4-(allyloxy)phenyl)propanoate”, the ring closure, yield after HPLC in data set [4] (Hoveyda-Grubbs II (10 mol%), 3.5 mM) is 75%.

Compound “(S)-tert-Butyl 2-((S)-2-((2S,4S)-4-allyl-1-((S)-2-((S)-2-((tert-butoxycarbonyl)(methyl)amino)propanamido)-3,3-dimethylbutanoyl)pyrrolidine-2-carboxamido)-3-(naphthalen-2-yl)propanamido)-3-(4-((1-((3R,5S)-5-(((S)-1-(((S)-2-(4-(allyloxy)phenyl)-1-(1-trityl-1H-tetrazol-5-yl)ethyl)amino)-3-(naphthalen-2-yl)-1-oxopropan-2-yl)carbamoyl)-1-((S)-2-((S)-2-((tert-butoxycarbonyl)(methyl)amino)propanamido)-3,3-dimethylbutanoyl)pyrrolidin-3-yl)-1H-1,2,3-triazol-4-yl)methoxy)phenyl)propanoate” had a ring closure, isolated yield in data set [5] (38-membered ring, Hoveyda-Grubbs II (2 portions), DCE, 2.34 mM, 70.0 °C) of 48%.

“(S)-tert-Butyl 2-((S)-2-((2S,4S)-4-allyl-1-((S)-2-((S)-2-((tert-butoxycarbonyl)(methyl)amino)propanamido)-3,3-dimethylbutanoyl)pyrrolidine-2-carboxamido)-3-(naphthalen-2-yl)propanamido)-3-(4-((1-((3S,5S)-5-(((S)-1-(((S)-2-(4-(allyloxy)phenyl)-1-(5-oxo-4,5-dihydro-1,3,4-oxadiazol-2-yl)ethyl)amino)-3-(naphthalen-2-yl)-1-oxopropan-2-yl)carbamoyl)-1-((S)-2-((S)-2-((tert-butoxycarbonyl)(methyl)amino)propanamido)-3,3-dimethylbutanoyl)pyrrolidin-3-yl)-1H-1,2,3-triazol-4-yl)methoxy)phenyl)propanoate” displayed a ring closure, yield after HPLC in data set [4] (Hoveyda-Grubbs II (10 mol%), 5.2 mM) of 52%.

For the compound “(S)-tert-butyl 2-((S)-2-((2S,4S)-4-((5-((4-((S)-2-((S)-2-((2S,4S)-4-allyl-1-((S)-2-((S)-2-((tert-butoxycarbonyl)(methyl)amino)propanamido)-3,3-dimethylbutanoyl)pyrrolidine-2-carboxamido)-3-(naphthalen-2-yl)propanamido)-3-(cyclopropanesulfonamido)-3-oxopropyl)phenoxy)methyl)-1H-1,2,3-triazol-1-yl)-1-((S)-2-((S)-2-((tert-butoxycarbonyl)(methyl)amino)propanamido)-3,3-dimethylbutanoyl)pyrrolidine-2-carboxamido)-3-(naphthalen-2-yl)propanamido)-3-(4-(allyloxy)phenyl)propanoate”, in data set [5] (37-membered ring, 2 steps), the ring closure, isolated yield was determined as 2%.
